In patent US10383848B2, “Indole-based therapeutics” (Creighton University, priority 2016, dated 2019):
In brackets after ≈: the same amount, converted by molar mass.

Key:
Assay type in all cases: cell-based
[1] = tested on: M. massiliense CIP 108297; assay: MIC, resazurin microtiter assay; conditions: Mycobacteroides abscessus, CIP108297, Mueller Hinton II; read-out: MIC M. massiliense CIP 108297
M. abscessus ATCC 19977 = assay: MIC, resazurin microtiter assay; conditions: Mycobacteroides abscessus, ATCC19977; Mueller Hinton II; read-out: MIC M. abscessus ATCC 19977
M. abscessus DCI #21 = assay: MIC, resazurin microtiter assay; conditions: Mycobacteroides abscessus; Mueller Hinton II; read-out: MIC M. abscessus DCI #21
M. smegmatis mc^2155 = assay: MIC, resazurin microtiter assay; conditions: Mycolicibacterium smegmatis, MC^2155, 7H9-ADC-0.05% Tween 80; read-out: MIC M. smeg. mc^2155
M. massiliense CRM 0019 = assay: MIC, resazurin microtiter assay; conditions: Mycobacteroides abscessus, CRM0019, Mueller Hinton II; read-out: MIC M. massiliense CRM 0019
M. chelonae ATCC 35752 = assay: MIC, resazurin microtiter assay; conditions: Mycobacteroides chelonae, ATCC35752, Mueller Hinton II; read-out: MIC M. chelonae ATCC 35752
M. bolletii ATCC 14472 = assay: MIC, resazurin microtiter assay; conditions: Mycobacteroides abscessus, ATCC14472, Mueller Hinton II; read-out: MIC M. bolletii ATCC 14472
[2] = tested on: M. tuberculosis H37Rv mc^26206; assay: microbe, parasite or virus in culture; conditions: Mycobacterium tuberculosis, H37RV; read-out: MIC M. tb H37 Rv (mc2-6206)
M. intracellulare 1956 = assay: MIC, resazurin microtiter assay; conditions: Mueller Hinton II; read-out: MIC M. avium Intracellulare 1956
M. xenopi WT = assay: MIC, resazurin microtiter assay; conditions: Mycobacterium xenopi, Mueller Hinton II; read-out: MIC M. xenopi WT
M. avium 104 = assay: MIC, resazurin microtiter assay; conditions: Mycobacterium avium, 104; Mueller Hinton II; read-out: MIC M. avium 104

CCCCCCCCNC(=O)c1cc2ccccc2[nH]1 [Compound 18, N-octyl-1H-indole-2-carboxamide]
MIC [1]: > 32 µg/mL | MIC (M. abscessus ATCC 19977): > 32 µg/mL | MIC (M. abscessus DCI #21): > 32 µg/mL | MIC (M. smegmatis mc^2155): > 25 µg/mL | MIC (M. massiliense CRM 0019): > 32 µg/mL | MIC (M. chelonae ATCC 35752): > 32 µg/mL | MIC (M. bolletii ATCC 14472): > 32 µg/mL | MIC [2]: > 10 µg/mL

O=C(NC1CCCCCCC1)c1cc2ccccc2[nH]1 [Compound 10, N-cyclooctyl-1H-indole-2-carboxamide]
MIC (M. intracellulare 1956): > 32 µg/mL | MIC (M. xenopi WT): 2 µg/mL (≈ 7.4 µM) | MIC (M. avium 104): > 32 µg/mL | MIC [1]: > 32 µg/mL | MIC (M. abscessus ATCC 19977): > 32 µg/mL | MIC (M. abscessus DCI #21): > 32 µg/mL | MIC (M. smegmatis mc^2155): 25 µg/mL (≈ 92.5 µM) | MIC (M. massiliense CRM 0019): 32 µg/mL (≈ 118 µM) | MIC (M. chelonae ATCC 35752): > 32 µg/mL | MIC (M. bolletii ATCC 14472): 32 µg/mL (≈ 118 µM) | MIC [2]: 0.39 µg/mL (≈ 1.44 µM)

CC(NC(=O)c1cc2ccccc2[nH]1)C12CC3CC(CC(C3)C1)C2 (centres unmarked) [Compound 7, N-(1-(1-adamantyl)ethyl)-1H-indole-2-carboxamide]
MIC (M. intracellulare 1956): 32 µg/mL (≈ 99.2 µM) | MIC (M. xenopi WT): 8 µg/mL (≈ 24.8 µM) | MIC (M. avium 104): > 32 µg/mL | MIC [1]: 8 µg/mL (≈ 24.8 µM) | MIC (M. abscessus ATCC 19977): 16 µg/mL (≈ 49.6 µM) | MIC (M. abscessus DCI #21): 16 µg/mL (≈ 49.6 µM) | MIC (M. smegmatis mc^2155): > 20 µg/mL | MIC (M. massiliense CRM 0019): 8 µg/mL (≈ 24.8 µM) | MIC (M. chelonae ATCC 35752): 2 µg/mL (≈ 6.2 µM) | MIC (M. bolletii ATCC 14472): 16 µg/mL (≈ 49.6 µM) | MIC [2]: > 5 µg/mL

Cc1cc(C)c2cc(C(=O)NC3CCCCC3)[nH]c2c1 [Compound 27, N-cyclohexyl-4,6-dimethyl-1H-indole-2-carboxamide]
MIC (M. intracellulare 1956): > 32 µg/mL | MIC (M. xenopi WT): 1 to 2 µg/mL (≈ 3.7 to 7.4 µM) | MIC (M. avium 104): > 32 µg/mL | MIC [1]: 0.25 µg/mL (≈ 0.925 µM) | MIC (M. abscessus ATCC 19977): 0.5 µg/mL (≈ 1.85 µM) | MIC (M. abscessus DCI #21): 0.25 µg/mL (≈ 0.925 µM) | MIC (M. smegmatis mc^2155): 2.5 µg/mL (≈ 9.25 µM) | MIC (M. massiliense CRM 0019): 0.25 µg/mL (≈ 0.925 µM) | MIC (M. chelonae ATCC 35752): 0.25 µg/mL (≈ 0.925 µM) | MIC (M. bolletii ATCC 14472): 0.25 µg/mL (≈ 0.925 µM)

Cc1cc(C)c2cc(C(=O)NC3CCC(C)CC3)[nH]c2c1 (centres unmarked) [Compound 29, 4,6-dimethyl-N-((1s,4s)-4-methylcyclohexyl)-1H-indole-2-carboxamide]
MIC (M. intracellulare 1956): > 32 µg/mL | MIC (M. xenopi WT): 0.25 to 1 µg/mL (≈ 0.879 to 3.52 µM) | MIC (M. avium 104): > 32 µg/mL | MIC [1]: ≤ 0.06 µg/mL | MIC (M. abscessus ATCC 19977): ≤ 0.06 µg/mL | MIC (M. abscessus DCI #21): ≤ 0.06 µg/mL | MIC (M. smegmatis mc^2155): > 20 µg/mL | MIC (M. massiliense CRM 0019): ≤ 0.06 µg/mL | MIC (M. chelonae ATCC 35752): ≤ 0.06 µg/mL | MIC (M. bolletii ATCC 14472): ≤ 0.06 µg/mL

Cc1cc(C)c2cc(C(=O)NC3C4CC5CC(C4)CC3C5)[nH]c2c1 (centres unmarked) [Compound 24, N-2-adamantyl-4,6-dimethyl-1H-indole-2-carboxamide]
MIC (M. intracellulare 1956): > 32 µg/mL | MIC (M. xenopi WT): 0.5 to 1 µg/mL (≈ 1.55 to 3.1 µM) | MIC (M. avium 104): > 32 µg/mL | MIC [1]: > 32 µg/mL | MIC (M. abscessus ATCC 19977): > 32 µg/mL | MIC (M. abscessus DCI #21): > 32 µg/mL | MIC (M. smegmatis mc^2155): > 20 µg/mL | MIC (M. massiliense CRM 0019): > 32 µg/mL | MIC (M. chelonae ATCC 35752): > 32 µg/mL | MIC (M. bolletii ATCC 14472): > 32 µg/mL

CC1CCC(NC(=O)c2cc3ccccc3[nH]2)CC1 (centres unmarked) [Compound 14, N-((1s,4s)-4-methylcyclohexyl)-1H-indole-2-carboxamide]
MIC [1]: > 32 µg/mL | MIC (M. abscessus ATCC 19977): > 32 µg/mL | MIC (M. abscessus DCI #21): > 32 µg/mL | MIC (M. smegmatis mc^2155): > 25 µg/mL | MIC (M. massiliense CRM 0019): > 32 µg/mL | MIC (M. chelonae ATCC 35752): > 32 µg/mL | MIC (M. bolletii ATCC 14472): > 32 µg/mL | MIC [2]: > 10 µg/mL

Cc1cc(C)c2cc(C(=O)NC34CC5CC(CC(C5)C3)C4)[nH]c2c1 [Compound 20, N-1-adamantyl-4,6-dimethyl-1H-indole-2-carboxamide]
MIC (M. intracellulare 1956): > 32 µg/mL | MIC (M. xenopi WT): > 32 µg/mL | MIC (M. avium 104): > 32 µg/mL | MIC [1]: > 32 µg/mL | MIC (M. abscessus ATCC 19977): > 32 µg/mL | MIC (M. abscessus DCI #21): 32 µg/mL (≈ 99.2 µM) | MIC (M. smegmatis mc^2155): 1.25 to 2.5 µg/mL (≈ 3.88 to 7.75 µM) | MIC (M. massiliense CRM 0019): > 32 µg/mL | MIC (M. chelonae ATCC 35752): > 32 µg/mL | MIC (M. bolletii ATCC 14472): > 32 µg/mL

O=C(NC1CCCCC1)c1cc2ccccc2[nH]1 [Compound 12, N-cyclohexyl-1H-indole-2-carboxamide]
MIC [1]: > 32 µg/mL | MIC (M. abscessus ATCC 19977): > 32 µg/mL | MIC (M. abscessus DCI #21): > 32 µg/mL | MIC (M. smegmatis mc^2155): > 25 µg/mL | MIC (M. massiliense CRM 0019): > 32 µg/mL | MIC (M. chelonae ATCC 35752): > 32 µg/mL | MIC (M. bolletii ATCC 14472): > 32 µg/mL | MIC [2]: > 10 µg/mL

O=C(NC1CCCC1)c1cc2ccccc2[nH]1 [Compound 13, N-cyclopentyl-1H-indole-2-carboxamide]
MIC [1]: > 32 µg/mL | MIC (M. abscessus ATCC 19977): > 32 µg/mL | MIC (M. abscessus DCI #21): > 32 µg/mL | MIC (M. smegmatis mc^2155): > 25 µg/mL | MIC (M. massiliense CRM 0019): > 32 µg/mL | MIC (M. chelonae ATCC 35752): > 32 µg/mL | MIC (M. bolletii ATCC 14472): > 32 µg/mL | MIC [2]: > 10 µg/mL

CCC12CC3CC(C1)CC(NC(=O)c1cc4c(C)cc(C)cc4[nH]1)(C3)C2 [Compound 21, N-(3-ethyl-1-adamantyl)-4,6-dimethyl-1H-indole-2-carboxamide]
MIC (M. intracellulare 1956): > 32 µg/mL | MIC (M. xenopi WT): > 32 µg/mL | MIC (M. avium 104): > 32 µg/mL | MIC [1]: > 32 µg/mL | MIC (M. abscessus ATCC 19977): > 32 µg/mL | MIC (M. abscessus DCI #21): > 32 µg/mL | MIC (M. smegmatis mc^2155): > 20 µg/mL | MIC (M. massiliense CRM 0019): > 32 µg/mL | MIC (M. chelonae ATCC 35752): > 32 µg/mL | MIC (M. bolletii ATCC 14472): > 32 µg/mL
